This test deals with 4-aminobutyrate aminotransferase, mitochondrial (Sus scrofa, UniProt P80147). Kind of test: Competitive inhibition of pig GABA aminotransferase using alpha-ketoglutarate as substrate by SSADH-coupled assay.
Sequence of 4-aminobutyrate aminotransferase, mitochondrial (P80147 whole entry): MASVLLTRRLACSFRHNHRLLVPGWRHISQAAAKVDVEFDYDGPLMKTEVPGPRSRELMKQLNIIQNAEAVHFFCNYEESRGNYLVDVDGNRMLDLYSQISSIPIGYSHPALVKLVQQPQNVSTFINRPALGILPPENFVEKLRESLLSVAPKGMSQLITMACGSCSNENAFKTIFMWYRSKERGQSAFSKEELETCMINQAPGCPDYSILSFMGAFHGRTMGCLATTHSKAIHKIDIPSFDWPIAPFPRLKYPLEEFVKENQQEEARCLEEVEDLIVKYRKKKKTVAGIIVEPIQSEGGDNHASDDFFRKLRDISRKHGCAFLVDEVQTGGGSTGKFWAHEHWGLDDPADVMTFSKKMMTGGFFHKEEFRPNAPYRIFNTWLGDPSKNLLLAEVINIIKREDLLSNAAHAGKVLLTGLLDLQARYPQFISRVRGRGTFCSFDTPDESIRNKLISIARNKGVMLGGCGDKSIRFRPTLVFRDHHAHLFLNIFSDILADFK

In turn, `NCc1ccc(C(=O)O)o1` registered a Ki of 1400 µM. The same measure for `NCc1ccc(C(=O)O)s1`: 2490 µM; for `NCc1ccc(C(=O)O)[nH]1`: 2140 µM.

For `NCc1coc(C(=O)O)c1`, the Ki was 1640 µM. On to `NCc1csc(C(=O)O)c1`, for which the Ki was 1350 µM. The same measure for `NCc1c[nH]c(C(=O)O)c1`: 1590 µM; for `NCc1cocc1C(=O)O`: 2270 µM; for `NCc1cscc1C(=O)O`: 2860 µM.

The values above are taken from ChEMBL document CHEMBL2146416 (Bioorg Med Chem, 2012).
